Where two headings read alike, the source gives them in different places.

Data set [1] is described as follows: Chromatographic lipophilicity by RP-HPLC on C18 column (CHIC18). It is filed as physicochemical. The protocol:
(§1) Elution was conducted under the following conditions:
(§2) The injected volume was 10 μL. […] Each sample was analyzed three times.

Data set [2] in a line: Affinity to phospholipids by IAM-HPLC (IAM.PC.DD2 column). Type of data set: physicochemical. The protocol: as §1, §2
Another data set deals with human serum albumin (Homo sapiens, UniProt P02768).
Sequence of human serum albumin (P02768 25-609): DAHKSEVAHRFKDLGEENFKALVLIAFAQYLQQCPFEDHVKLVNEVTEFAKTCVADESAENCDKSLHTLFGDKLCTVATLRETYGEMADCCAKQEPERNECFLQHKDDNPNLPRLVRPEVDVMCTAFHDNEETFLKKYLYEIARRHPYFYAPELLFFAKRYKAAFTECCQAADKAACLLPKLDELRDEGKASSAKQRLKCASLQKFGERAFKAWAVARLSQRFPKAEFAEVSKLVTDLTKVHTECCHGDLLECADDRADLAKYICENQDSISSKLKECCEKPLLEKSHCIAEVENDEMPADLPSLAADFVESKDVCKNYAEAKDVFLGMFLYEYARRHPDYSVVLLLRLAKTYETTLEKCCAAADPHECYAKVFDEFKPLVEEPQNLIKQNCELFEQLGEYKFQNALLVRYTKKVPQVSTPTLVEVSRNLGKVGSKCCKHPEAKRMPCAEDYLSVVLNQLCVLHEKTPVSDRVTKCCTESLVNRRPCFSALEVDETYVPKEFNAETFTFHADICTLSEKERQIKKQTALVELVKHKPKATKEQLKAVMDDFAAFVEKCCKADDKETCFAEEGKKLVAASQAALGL
[3] abbreviates: C18 XTERRA RP18 column, acetonitrile gradient, 50 mM ammonium acetate pH 7.4, 30 °C.
Where [4] appears, read: IAM.PC.DD2 column, acetonitrile gradient, 50 mM ammonium acetate pH 7.4, 30 °C.
Setting [5] is: HSA column, isopropanol gradient, 50 mM ammonium acetate pH 7.4, 30 °C.

Method for human serum albumin: Each column was equipped with an appropriate precolumn. Elution was conducted under the following conditions:

With `CCOP(=S)(OCC)SCSCC` [Phorate], the “CHIC18 (chromatographic hydrophobicity index of RP-HPLC)” value in data set [1] (setting [3]) turned out to be 108.36. Besides, the “CHIIAM (chromatographic hydrophobicity index of IAM-HPLC)” value in data set [2] (setting [4]) is 42.43; in data set [2] (IAM.PC.DD2 column, acetonitrile gradient, 50 mM ammonium acetate pH 7.4, 30 °C, listed as phorate), “highest CHIIAM values”. At human serum albumin (setting [5]), the “%HSA (binding to HSA)” value stood at 93.08%. In addition, the “LogkHSA (chromatographically determined affinity to HSA-HPLC)” value (“LogkHSA” for short) on human serum albumin (setting [5]) is recorded as 1.07.

Regarding `CCOP(=S)(OCC)Oc1cc(C)nc(C(C)C)n1` [Diazinon], the “CHIC18 (chromatographic hydrophobicity index of RP-HPLC)” value is 105.98 in data set [1] (setting [3]) and “remarkably high lipophilicity” in data set [1] (C18 XTERRA RP18 column, acetonitrile gradient, 50 mM ammonium acetate pH 7.4, 30 °C, listed as diazinon). Further, the “CHIIAM (chromatographic hydrophobicity index of IAM-HPLC)” value in data set [2] (setting [4]) is 39.34. Besides, the “%HSA (binding to HSA)” value on human serum albumin (setting [5]) stood at 81.33%. For the same compound, at human serum albumin (setting [5]), the “LogkHSA” value was 0.62.

Take `CCOC(=O)N(C)C(=O)CSP(=S)(OCC)OCC` [Mecarbam]: the “CHIC18 (chromatographic hydrophobicity index of RP-HPLC)” value in data set [1] (setting [3]) is 97.09. Also, the “CHIIAM (chromatographic hydrophobicity index of IAM-HPLC)” value in data set [2] (setting [4]) stood at 35.77. In addition, at human serum albumin (setting [5]), the “%HSA (binding to HSA)” value was 74.23% and the “LogkHSA” value was determined as 0.44.

As for `CCOP(=O)(OCC)OC(=CCl)c1ccc(Cl)cc1Cl` [Chlorfenvinphos], in data set [1] (setting [3]), the “CHIC18 (chromatographic hydrophobicity index of RP-HPLC)” value amounted to 97.18. For the same compound, in data set [2] (setting [4]), the “CHIIAM (chromatographic hydrophobicity index of IAM-HPLC)” value is recorded as 38.13. Also, at human serum albumin (setting [5]), the “%HSA (binding to HSA)” value was 85.54% and the “LogkHSA” value was determined as 0.74.

`CCOP(=O)(OCC)Oc1ccc([N+](=O)[O-])cc1` [Paraoxon-ethyl]: the “CHIC18 (chromatographic hydrophobicity index of RP-HPLC)” value in data set [1] (setting [3]) amounted to 72.54. In addition, in data set [2] (setting [4]), the “CHIIAM (chromatographic hydrophobicity index of IAM-HPLC)” value turned out to be 25.34. Moreover, at human serum albumin (setting [5]), the “%HSA (binding to HSA)” value worked out at 27.68% and the “LogkHSA” value is reported as −0.42.

For `COP(=O)(OC)OC(Br)C(Cl)(Cl)Br` (centres unmarked) [Naled], the “CHIC18 (chromatographic hydrophobicity index of RP-HPLC)” value is on record as 31.32 in data set [1] (setting [3]) and “low lipophilicity” in data set [1] (C18 XTERRA RP18 column, acetonitrile gradient, 50 mM ammonium acetate pH 7.4, 30 °C, listed as naled). In addition, in data set [2] (setting [4]), the “CHIIAM (chromatographic hydrophobicity index of IAM-HPLC)” value came to 29.79. For the same compound, the “%HSA (binding to HSA)” value on human serum albumin (setting [5]) is 43.86%. For the same compound, the “LogkHSA” value at human serum albumin (setting [5]) is recorded as −0.11.

As for `CCOP(=S)(OCC)Oc1cnc2ccccc2n1` [Quinalphos], the “CHIC18 (chromatographic hydrophobicity index of RP-HPLC)” value in data set [1] (setting [3]) is on record as 101.01. Further, the “CHIC18 (chromatographic hydrophobicity index of RP-HPLC)” value in data set [1] (C18 XTERRA RP18 column, acetonitrile gradient, 50 mM ammonium acetate pH 7.4, 30 °C, listed as quinalphos) is given as “remarkably high lipophilicity”. Moreover, the “CHIIAM (chromatographic hydrophobicity index of IAM-HPLC)” value in data set [2] (setting [4]) was determined as 39.40. In addition, at human serum albumin (setting [5]), the “%HSA (binding to HSA)” value turned out to be 91.23% and the “LogkHSA” value came out at 0.97.

Turning to `COP(=S)(OC)Oc1ccc(SC)c(C)c1` [Fenthion], the “CHIC18 (chromatographic hydrophobicity index of RP-HPLC)” value in data set [1] (setting [3]) is 102.16. The “CHIIAM (chromatographic hydrophobicity index of IAM-HPLC)” value is 42.37 in data set [2] (setting [4]) and “highest CHIIAM values” in data set [2] (IAM.PC.DD2 column, acetonitrile gradient, 50 mM ammonium acetate pH 7.4, 30 °C, listed as fenthion). Further, the “%HSA (binding to HSA)” value at human serum albumin (setting [5]) is on record as 96.04%; at human serum albumin (HSA column, isopropanol gradient, 50 mM ammonium acetate pH 7.4, 30 °C, listed as fenthion) it was “highest protein-binding capacity”. At human serum albumin (setting [5]), the “LogkHSA” value came to 1.29.

With `COP(=S)(OC)SCn1nnc2ccccc2c1=O` [Azinphos-methyl], in data set [1] (setting [3]), the “CHIC18 (chromatographic hydrophobicity index of RP-HPLC)” value was determined as 83.47. In data set [2] (setting [4]), the “CHIIAM (chromatographic hydrophobicity index of IAM-HPLC)” value is 33.18. Besides, at human serum albumin (setting [5]), the “%HSA (binding to HSA)” value is 86.70% and the “LogkHSA” value worked out at 0.78.

As to `CCOP(=S)(OCC)SCn1nnc2ccccc2c1=O` [Azinphos-ethyl], the “CHIC18 (chromatographic hydrophobicity index of RP-HPLC)” value in data set [1] (setting [3]) came out at 95.69. For the same compound, in data set [2] (setting [4]), the “CHIIAM (chromatographic hydrophobicity index of IAM-HPLC)” value was found to be 37.81. Also, on human serum albumin (setting [5]), the “%HSA (binding to HSA)” value turned out to be 92.07% and the “LogkHSA” value turned out to be 1.01.

On to Chlorpyrifos-oxon, for which the “CHIC18 (chromatographic hydrophobicity index of RP-HPLC)” value in data set [1] (setting [3]) was found to be 39.17. The “CHIIAM (chromatographic hydrophobicity index of IAM-HPLC)” value in data set [2] (setting [4]) is listed as 24.96. Besides, the “LogkHSA” value at human serum albumin (setting [5]) was determined as 0.68. On human serum albumin (pH 7.4), the “%HSA (binding to HSA)” value was determined as 83.49%.

On to `CCOP(=S)(OCC)SCCSCC` [Disulfoton], for which the “CHIC18 (chromatographic hydrophobicity index of RP-HPLC)” value in data set [1] (setting [3]) is on record as 108.97; in data set [1] (C18 XTERRA RP18 column, acetonitrile gradient, 50 mM ammonium acetate pH 7.4, 30 °C, listed as disulfoton), “remarkably high lipophilicity”. Also, the “CHIIAM (chromatographic hydrophobicity index of IAM-HPLC)” value in data set [2] (setting [4]) is reported as 42.34; in data set [2] (IAM.PC.DD2 column, acetonitrile gradient, 50 mM ammonium acetate pH 7.4, 30 °C, listed as disulfoton), “highest CHIIAM values”. For the same compound, at human serum albumin (setting [5]), the “%HSA (binding to HSA)” value turned out to be 92.86%. For the same compound, the “LogkHSA” value on human serum albumin (setting [5]) is reported as 1.06.

For the compound `CCCSP(=O)(OCC)SCCC` [Ethoprophos], the “CHIC18 (chromatographic hydrophobicity index of RP-HPLC)” value in data set [1] (pH 7.4) is reported as 88.39. For the same compound, the “CHIIAM (chromatographic hydrophobicity index of IAM-HPLC)” value in data set [2] (pH 7.4) was determined as 32.41. In addition, at human serum albumin (human, pH 7.4), the “%HSA (binding to HSA)” value is given as 28.35% and the “LogkHSA” value is on record as −0.41.

On to `COP(=S)(OC)Oc1ccc([N+](=O)[O-])c(C)c1` [Fenitrothion], for which the “CHIC18 (chromatographic hydrophobicity index of RP-HPLC)” value in data set [1] (setting [3]) is 93.49. The “CHIIAM (chromatographic hydrophobicity index of IAM-HPLC)” value in data set [2] (setting [4]) came to 38.10. Besides, on human serum albumin (setting [5]), the “%HSA (binding to HSA)” value was determined as 91.78% and the “LogkHSA” value came out at 1.00.

For the compound `COP(=S)(OC)Oc1ccc([N+](=O)[O-])cc1` [Parathion-methyl], the “CHIC18 (chromatographic hydrophobicity index of RP-HPLC)” value in data set [1] (setting [3]) is recorded as 88.75. In data set [2] (setting [4]), the “CHIIAM (chromatographic hydrophobicity index of IAM-HPLC)” value was 35.54. In addition, on human serum albumin (setting [5]), the “%HSA (binding to HSA)” value came to 87.94% and the “LogkHSA” value was 0.83.

`COP(=O)(OC)OC=C(Cl)Cl` [Dichlorvos]: in data set [1] (setting [3]), the “CHIC18 (chromatographic hydrophobicity index of RP-HPLC)” value turned out to be 23.17. In addition, in data set [1] (C18 XTERRA RP18 column, acetonitrile gradient, 50 mM ammonium acetate pH 7.4, 30 °C, listed as dichlorvos), the “CHIC18 (chromatographic hydrophobicity index of RP-HPLC)” value is “low lipophilicity”. Also, in data set [2] (setting [4]), the “CHIIAM (chromatographic hydrophobicity index of IAM-HPLC)” value is listed as 16.56. Moreover, on human serum albumin (setting [5]), the “%HSA (binding to HSA)” value was 65.86% and the “LogkHSA” value is listed as 0.27.

Turning to `COP(=S)(OC)SCN1C(=O)c2ccccc2C1=O` [Phosmet], the “CHIC18 (chromatographic hydrophobicity index of RP-HPLC)” value in data set [1] (setting [3]) was determined as 85.39. Moreover, the “CHIIAM (chromatographic hydrophobicity index of IAM-HPLC)” value in data set [2] (setting [4]) is on record as 33.89. On human serum albumin (setting [5]), the “%HSA (binding to HSA)” value is 87.23% and the “LogkHSA” value is 0.80.

(Values after paper PMC11898958, “Application of Biomimetic Chromatography and QSRR Approach for Characterizing Organophosphate Pesticides” (International Journal of Molecular Sciences, 2025).)
